# Like-named read-outs stand apart in the source and are kept apart here.
# Key:
# Test in all cases: Ras GTP binding domain inhibition assay (labeled GTP)
# KRas Q61H mutant = KRas Q61H mutant (Homo sapiens (Human), UniProt P01116, Q61H); settings: 20 μM compound
# How it was run: (§1)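 Inhibition of labeled GTP binding is measured on immobilized His-KRas protein in Tris buffer pH 7.5 with 1 mM MgCl2 and 1 mM DTT.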
# [1] = biological target: KRas G12D/Q61H double mutant (Homo sapiens (Human), UniProt P01116, G12D/Q61H); settings: for inhibition at 20 µM: 20 μM compound; for IC50: serial dilution, read-out: KRas G12D Q61H (classes E-H, IC50)
# How it was run: as §1
# [2] = biological target: KRas G12C/Q61H double mutant (Homo sapiens (Human), UniProt P01116, G12C/Q61H); settings: 20 μM compound
# How it was run: as §1
# [3] = read-out: % Inhibition at 20 μM KRas Q61H
# [4] = read-out: % Inhibition at 20 μM KRas G12D Q61H
# [5] = read-out: % Inhibition at 20 μM KRas G12C Q61H
# [6] = KRas Q61H, read-out: % Inhibition at 20 μM of K-Ras mutant and wild-type protein, KRas Q61H
# [7] = KRas G12D/Q61H double mutant, read-out: % Inhibition at 20 μM of K-Ras mutant and wild-type protein, KRas G12D Q61H
# [8] = KRas G12C/Q61H double mutant, read-out: % Inhibition at 20 μM of K-Ras mutant and wild-type protein, KRas G12C Q61H
# Chain of KRas G12D/Q61H double mutant (P01116-2 other isoform, or with tags, fused parts or gaps G12D/Q61H): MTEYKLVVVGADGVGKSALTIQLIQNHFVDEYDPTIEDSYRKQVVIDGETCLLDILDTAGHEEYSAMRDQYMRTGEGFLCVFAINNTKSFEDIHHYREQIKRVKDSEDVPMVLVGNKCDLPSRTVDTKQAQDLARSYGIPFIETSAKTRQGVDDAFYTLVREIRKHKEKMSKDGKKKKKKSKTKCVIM
# Chain of KRas Q61H mutant (P01116-2 other isoform, or with tags, fused parts or gaps Q61H): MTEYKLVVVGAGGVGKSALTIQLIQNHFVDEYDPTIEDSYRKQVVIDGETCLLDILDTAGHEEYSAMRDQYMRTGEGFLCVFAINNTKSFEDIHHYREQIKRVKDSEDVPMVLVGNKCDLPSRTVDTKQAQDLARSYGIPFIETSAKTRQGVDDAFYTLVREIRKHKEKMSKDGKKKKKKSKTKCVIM
# Chain of KRas G12C/Q61H double mutant (P01116-2 other isoform, or with tags, fused parts or gaps G12C/Q61H): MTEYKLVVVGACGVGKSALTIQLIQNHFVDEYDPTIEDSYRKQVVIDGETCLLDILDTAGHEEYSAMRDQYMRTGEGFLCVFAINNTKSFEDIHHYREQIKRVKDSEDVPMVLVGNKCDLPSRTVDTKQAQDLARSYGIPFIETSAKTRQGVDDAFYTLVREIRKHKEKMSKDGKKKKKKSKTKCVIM
SMILES,inhibition at 20 µM (KRas Q61H mutant; [3]),"inhibition at 20 µM [1, 4]","inhibition at 20 µM [2, 5]",inhibition at 20 µM (KRas Q61H mutant; [6]),"inhibition at 20 µM [1, 7]","inhibition at 20 µM [2, 8]",IC50 [1]
COc1ccc(CCNC(=O)c2csc3nc(-c4ccccn4)nc(N4CCS(=O)(=O)CC4)c23)cn1 [drawing 2853],25 to 50%,25 to 50%,25 to 50%,,,,
O=C(NCCc1cnc(O)nc1)c1csc2nc(-c3ccccn3)nc(N3CCS(=O)(=O)CC3)c12 [drawing 2854],25 to 50%,25 to 50%,1 to 25%,,,,
N#Cc1ccc2c(c1)CCCC2C(=O)Nc1ccnc(-c2ccccn2)n1 (centres unmarked) [drawing 2855],51 to 75%,51 to 75%,51 to 75%,,,,
Oc1nc(-c2ccccn2)nc2c(-c3ccccc3OC3CCCCC3)csc12 [drawing 2866],51 to 75%,51 to 75%,51 to 75%,,,,
Oc1nc(-c2ccccn2)nc2c(-c3ccc(OC4CCOCC4)cc3)csc12 [drawing 2867],25 to 50%,25 to 50%,25 to 50%,,,,
Oc1nc(-c2ccccn2)nc2c(-c3ccc(CN4CCOCC4)cc3)csc12 [drawing 2882],25 to 50%,25 to 50%,25 to 50%,,,,
Oc1nc(-c2ccccn2)nc2c(-c3ccc(OC4CCCCC4)cc3)csc12 [drawing 2887],25 to 50%,25 to 50%,25 to 50%,,,,
Nc1nc(-c2ccccn2)nc2c(Br)csc12 [drawing 2892],25 to 50%,25 to 50%,1 to 25%,,,,
Cc1sc2c(N)nc(-c3ccccn3)nc2c1Br [drawing 2893],1 to 25%,25 to 50%,25 to 50%,,,,
Nc1nc(-c2ccccn2)nc2scc(Br)c12 [drawing 2894],51 to 75%,25 to 50%,25 to 50%,,,,
COC(=O)c1csc2nc(-c3ccccn3)nc(N)c12 [drawing 2895],25 to 50%,25 to 50%,25 to 50%,,,,
COc1nccc(CCNC(=O)c2csc3nc(-c4ccccn4)nc(N4CCOCC4)c23)n1 [drawing 2897],25 to 50%,1 to 25%,25 to 50%,,,,
O=C(NCCc1ccnc(O)n1)c1csc2nc(-c3ccccn3)nc(N3CCOCC3)c12 [drawing 2898],51 to 75%,1 to 25%,51 to 75%,,,,
CCn1nc(C)cc1-c1csc2c(O)nc(-c3ccccn3)nc12 [drawing 2903],51 to 75%,51 to 75%,51 to 75%,,,,11 to 30 µM
Nc1nc(-c2ccccn2)nc2scc(C(=O)O)c12 [drawing 2906],51 to 75%,25 to 50%,51 to 75%,,,,
COC(=O)c1cc2nc(-c3ccccn3)nc(O)c2s1 [drawing 2907],51 to 75%,51 to 75%,51 to 75%,,,,> 30 µM
Oc1nc(-c2ccccn2)nc2c(-c3cc(C(F)(F)F)ccc3F)csc12 [drawing 3465],,,,1 to 25%,1 to 25%,1 to 25%,
Oc1nc(-c2ccccn2)nc2c(-c3cncc(C(F)(F)F)c3)csc12 [drawing 3466],,,,1 to 25%,1 to 25%,0%,

SMILES,inhibition at 20 µM (KRas Q61H mutant; [3]),"inhibition at 20 µM [1, 4]","inhibition at 20 µM [2, 5]",inhibition at 20 µM (KRas Q61H mutant; [6]),"inhibition at 20 µM [1, 7]","inhibition at 20 µM [2, 8]",IC50 [1]
Cc1cc2nc(-c3ccccn3)nc(O)c2s1 [drawing 3472],,,,51 to 75%,51 to 75%,51 to 75%,
COC(=O)c1c(C)sc2c(O)nc(-c3ccccn3)nc12 [drawing 3473],,,,51 to 75%,51 to 75%,51 to 75%,
COC(=O)c1sc2c(O)nc(-c3ccccn3)nc2c1C [drawing 3476],,,,51 to 75%,25 to 50%,51 to 75%,
Oc1nc(-c2ccccn2)nc2c3c(sc12)CNC3 [drawing 3477],,,,76 to 100%,51 to 75%,76 to 100%,
COc1nc(-c2ccccn2)nc2c(C3CCCCC3)csc12 [drawing 3479],,,,1 to 25%,1 to 25%,0%,
Cc1sc2c(O)nc(-c3ccccn3)nc2c1C(=O)O [drawing 3482],,,,25 to 50%,25 to 50%,25 to 50%,
Cc1c(C(=O)N2CCN(c3ccccc3)CC2)sc2c(O)nc(-c3ccccn3)nc12 [drawing 3483],,,,51 to 75%,51 to 75%,51 to 75%,
Cc1sc2nc(-c3ccccn3)nc(N)c2c1Br [drawing 3484],,,,25 to 50%,25 to 50%,25 to 50%,
COC(=O)c1c(C)sc2nc(-c3ccccn3)nc(N)c12 [drawing 3485],,,,25 to 50%,51 to 75%,25 to 50%,
Oc1nc(-c2ccccn2)nc2c(CC3CCNCC3)csc12 [drawing 3486],,,,51 to 75%,51 to 75%,51 to 75%,
Oc1nc(-c2ccccn2)nc2c(CC3CCCNC3)csc12 (centres unmarked) [drawing 3488],,,,51 to 75%,25 to 50%,51 to 75%,
COc1nc(-c2ccccn2)nc2c(C3CC3)csc12 [drawing 3489],,,,0%,1 to 25%,0%,
COc1cnc(C2(N)CCCC2)nc1O [drawing 3490],,,,0%,1 to 25%,1 to 25%,
COc1cnc(C(C)(C)N)nc1O [drawing 3491],,,,0%,1 to 25%,1 to 25%,
COC(=O)c1c(C)sc2c(N)nc(-c3ccccn3)nc12 [drawing 3499],,,,76 to 100%,51 to 75%,51 to 75%,
O=C(NCCc1ccncn1)c1csc2nc(-c3ccccn3)nc(N3CCOCC3)c12 [drawing 3500],,,,51 to 75%,25 to 50%,25 to 50%,
CC(C)c1nn(C)cc1-c1csc2c(O)nc(-c3ccccn3)nc12 [drawing 3501],,,,51 to 75%,51 to 75%,51 to 75%,

# Second part, led by results:
inhibition at 20 µM (KRas Q61H mutant; [3]),"inhibition at 20 µM [1, 4]","inhibition at 20 µM [2, 5]",inhibition at 20 µM (KRas Q61H mutant; [6]),"inhibition at 20 µM [1, 7]","inhibition at 20 µM [2, 8]",SMILES,IC50 [1]
51 to 75%,51 to 75%,51 to 75%,,,,Cc1ccc(OC2CCCC2)c(-c2csc3c(O)nc(-c4ccccn4)nc23)c1 [drawing 2844],
51 to 75%,51 to 75%,51 to 75%,,,,CC(C)(C)c1ccc(-c2csc3c(O)nc(-c4ccccn4)nc23)cc1 [drawing 2847],
25 to 50%,25 to 50%,1 to 25%,,,,Oc1nc(-c2ccccn2)nc2c(-c3ccc(OC4CCOC4)cc3)csc12 (centres unmarked) [drawing 2862],
25 to 50%,25 to 50%,25 to 50%,,,,Oc1nc(-c2ccccn2)nc2c(-c3ccc(OC4CCCC4)cc3)csc12 [drawing 2863],
51 to 75%,51 to 75%,51 to 75%,,,,Oc1nc(-c2ccccn2)nc2c(-c3ccc(C4CCC4)cc3)csc12 [drawing 2865],
1 to 25%,25 to 50%,1 to 25%,,,,COc1cc(C)c(-c2csc3c(O)nc(-c4ccccn4)nc23)cc1C [drawing 2869],
25 to 50%,25 to 50%,25 to 50%,,,,Cc1cc(OC(F)F)ccc1-c1csc2c(O)nc(-c3ccccn3)nc12 [drawing 2878],
25 to 50%,1 to 25%,25 to 50%,,,,Oc1nc(-c2ccccn2)nc2c(-c3ccnn3-c3ccccn3)csc12 [drawing 2904],
,,,51 to 75%,25 to 50%,25 to 50%,Oc1nc(-c2ccccn2)nc2c(-c3cnc4ccccc4c3)csc12 [drawing 3462],
,,,25 to 50%,25 to 50%,1 to 25%,Oc1nc(-c2ccccn2)nc2c(-c3ccc(Cl)c(Cl)c3)csc12 [drawing 3463],
,,,1 to 25%,1 to 25%,1 to 25%,Oc1nc(-c2ccccn2)nc2c(-c3cncc(F)c3)csc12 [drawing 3464],
,,,25 to 50%,25 to 50%,25 to 50%,Cc1cncc(-c2csc3c(O)nc(-c4ccccn4)nc23)c1 [drawing 3467],
,,,51 to 75%,25 to 50%,25 to 50%,Cc1c(Br)sc2c(O)nc(-c3ccccn3)nc12 [drawing 3474],
,,,25 to 50%,1 to 25%,1 to 25%,N#Cc1cccc(-c2csc3c(O)nc(-c4ccccn4)nc23)c1 [drawing 3503],
,,,25 to 50%,1 to 25%,1 to 25%,Oc1nc(-c2ccccn2)nc2c(-c3cncnc3)csc12 [drawing 3504],
,,,76 to 100%,51 to 75%,51 to 75%,Cc1c(-c2csc3c(O)nc(-c4ccccn4)nc23)cnn1C [drawing 3505],
,,,1 to 25%,1 to 25%,1 to 25%,Oc1nc(-c2ccccn2)nc2c(-c3cncc(C(F)F)c3)csc12 [drawing 3507],

# — patent US10940139B2, “Compounds that interact with the Ras superfamily for the treatment of cancers, inflammatory diseases, rasopathies, and fibrotic disease” (Shy Therapeutics LLC, priority 2017, dated 2021)
